For 65 molecules, melting point results are on record in a melting point compilation (Tetko et al.; mined from patent text by program, amines drawn as free bases though some values may be those of a salt).

The structures appear in SMILES notation.

As usually defined, the melting point is the temperature, or range, at which the solid turns liquid.

For the molecule `Fc1ccc(F)c(CN2CCNc3ncc(-c4cnc(N5CCOCC5)nc4)cc32)c1Cl`, the melting point lay in the range of 250 to 251 °C.

Regarding `CC(C)OC(=O)n1cc(F)c(N)nc1=O`, the melting point lay in the range of 217 to 219 °C.

`CNC(=O)n1sc(OC2CCCCC2)nc1=O` yielded a melting point of 121 °C.

In the case of `O=C1N(Cc2ccc(OCCO)cc2)c2ccccc2C12COc1cc3c(cc12)OCCO3` (stereo not given), the melting point fell in the range of 196 to 197 °C.

The molecule `Cc1ccc(C(=O)c2cnoc2C2CC2)cc1S(C)(=O)=O` displayed a melting point of 126 to 128 °C.

`Oc1ccccc1-c1noc2ccsc12` yielded a melting point of 121 °C.

In the case of `CC(C)(C)OC(=O)N1CCN(C[C@H](O)Cn2c3ccccc3c3cc(Br)ccc32)CC1`, the melting point lay within 75 to 85 °C.

The molecule `CC=CN1CC([N+](=O)[O-])=CN(C(C)c2ccc(Cl)nc2)C1(C)N` (stereo not given) displayed a melting point of 148 to 150 °C.

For `CN1CC(O)C(O)C(O)C1CO` (stereo not given), the melting point lay in the range of 142 to 143 °C.

`COC(=O)CCN(CC1CC2c3cccc4[nH]cc(c34)CC2N(C)C1)C(=O)NC(C)C` (stereo not given) came in with a melting point of 112 to 115 °C.

The molecule `NC[C@H]1CCCN1C(c1ccccc1)(c1ccccc1)c1ccccc1` returned a melting point of 100 °C.

Take `Cn1cc(C=CC(=O)NC2CC2)c([N+](=O)[O-])n1`: the melting point was 183 to 185 °C.

In turn, `C=CCOc1cc(C)c2c(C)cc(=O)oc2c1` came in with a melting point of 178 °C.

`CCOC(=O)c1ccn(-c2ccc(OCC)cc2)n1` came in with a melting point of 88 to 90 °C.

`Cc1ccc2c(NCc3ccc(NC(=O)C4CCN(Cc5ccccc5)CC4)cc3)nc(Cl)nc2c1` had a melting point of 212 °C.

Consider `CCN(Cc1ccc2nc(C)[nH]c(=O)c2c1)c1ccc(C(=O)NCc2nccn2Cc2ccccc2)cc1`, for which the melting point was 217 to 221 °C.

The molecule `COc1cn(-c2ccc(-c3ncco3)cc2F)nc(-c2ccnn2-c2ccccc2)c1=O` displayed a melting point of 223 to 225 °C.

Take `CCOC(=O)c1cn(C)c2cc(-n3cccc3)c(F)cc2c1=O`: the melting point was 253 to 254 °C.

In turn, `CC(=NO)C(C)(C)NCCN(C)NC(C)(C)C(Cn1ccnc1[N+](=O)[O-])=NO` had a melting point of 156 to 158 °C.

Regarding `CCCCCCCCCCCCCCOCc1ccc(C(C)=O)o1`, the melting point is 61 to 62 °C.

Molecule `Cc1cc2c(cc1OCC(=O)O)C(C)(C)CC1(CC(C)(C)c3cc(OCC(=O)O)c(C)cc3O1)O2` displayed a melting point greater than 260 °C.

Consider `O=C(O)CC1CCCN(C(=O)c2ccc(NC(=O)COc3ccccc3)cc2)c2ccccc21` (stereo not given), for which the melting point is 102 to 106 °C.

For `CN(C)C=Nc1nc(Cl)c2[nH]cnc2n1`, the melting point was 300 °C.

For the molecule `O=C(O)c1cn(C2CC2)c2c(F)c(N3CCC(n4cnnn4)C3)c(F)cc2c1=O` (stereo not given), the melting point lay within 268 to 270 °C.

In the case of `COc1cc(OC)c2c(=O)[nH]c(-c3ccc(CN4CCN(C)CC4)cc3)nc2c1`, the melting point lay in the range of 275 to 277 °C.

Turning to `O=C(Cc1ccc(F)cc1)N1CCN(Cc2ccccc2)CC1`, the melting point was 99 to 101 °C.

Take `CCCNC(=O)C1c2ccccc2-c2ccccc21`: the melting point is 197 to 199 °C.

`CN(C)CC1CNc2ccccc2C1` (stereo not given) displayed a melting point of 85 to 89 °C.

For the molecule `CC(=O)NC1CCN(c2ccc(C#N)c3ccccc23)C1` (stereo not given), the melting point lay within 154 to 155 °C.

The molecule `Cc1cc(SCc2cc(-c3ccc(C(F)(F)F)cc3)on2)c(Cl)cc1OCC(=O)O` gave a melting point of 120 to 121 °C.

In turn, `CNC(=O)c1ccc(N2CCN(Cc3cc4c(c(OC)c3)OCC(=O)N4)CC2)c(C)c1` displayed a melting point of 234 to 235 °C.

Turning to `C=C(Cl)C[C@H](CC(=O)O)C(=O)N[C@@H](CC1CCCCC1)[C@@H](O)[C@@H](O)CC(C)C`, the melting point was 193 to 196 °C.

`COc1cc(Cc2c(N)nc(N)nc2Cl)cc(OC)c1N` gave a melting point of 222 to 224 °C.

In the case of `COC(=O)c1ccc2c(c1)CN(c1c(F)cc3c(=O)c(C(=O)O)cn(-c4ccc(F)cc4)c3c1F)C2`, the melting point was in the range of 236 to 240 °C.

For `C=Cc1ccc2cc(C3CCN(Cc4ccccc4)CC3)ccc2c1`, the melting point is 112 to 114 °C.

In turn, `Cc1cc(C)c(O)c(C(CCCC(c2cc(C)cc(C)c2O)c2cc(C)cc(C)c2O)c2cc(C)cc(C)c2O)c1` returned a melting point of 236 to 242 °C.

With `CC(=O)SCC(C)C(=O)NC(CCCNC(=N)N)C(=O)O` (stereo not given), the melting point came out at 133 °C.

Turning to `COC(=O)c1ccc2sccc2c1O`, the melting point was 94 to 95 °C.

For the molecule `CC(C)(COc1ccc(Cl)cc1)C(=O)Cn1cncn1`, the melting point lay in the range of 88 to 90 °C.

Turning to `NCc1c(N)cccc1Oc1ccccc1`, the melting point is 69 to 71 °C.

Regarding `COC(=S)Cc1ccc(C(=O)CN2CCN(c3ccncc3)CC2)cc1`, the melting point fell in the range of 109 to 110 °C.

Turning to `CC1=CC(=O)c2cc(O)ccc2C1=O`, the melting point was 175 °C.

The molecule `NC(=NO)c1nc(Cl)c(Cl)[nH]1` displayed a melting point of 270 to 275 °C.

Regarding `CCOS(=O)(=O)c1ccc(-c2ccc(CCl)cc2)cc1`, the melting point is 112 to 116 °C.

Consider `CC(=O)Nc1ccc(I)cc1C`, for which the melting point is 182 to 183 °C.

Molecule `COc1ccc(-c2nn(C3CCCC3)c3c(F)cccc23)cc1` returned a melting point of 70 to 71 °C.

In turn, `[N-]=[N+]=CC(=O)OC/C=C/c1ccc(NC(=O)OCc2ccccc2)cc1F` came in with a melting point of 93 to 96 °C.

`CC(Cl)(Cl)C(=O)N1CCCC1C(=O)O` (stereo not given) had a melting point of 61 to 62 °C.

`CCCCCCCCCCCCCCC(=O)C(=O)N[C@@H](CCCC)C(=O)NCC(=O)OC` returned a melting point of 65 to 67 °C.

`Cc1sc2c(c1C)C(c1ccc(Cl)cc1)=N[C@@H](CC(=O)NCCO)c1nnc(C)n1-2` gave a melting point of 254 to 255 °C.

Molecule `COCC1CN(c2ccc(C3=CCCCC3)cc2)C(=O)O1` (racemic) displayed a melting point of 106 to 108 °C.

For the molecule `Nc1cc2c(cc1Oc1ccc(F)cc1)CCC2`, the melting point is 123 °C.

In turn, `Cc1ccc2c(-c3cnc4[nH]cc(C(=O)N[C@H](C)C(=O)N5CC(C#N)C5)c4n3)nn(C)c2n1` returned a melting point of 275 to 285 °C.

`CCCc1c(OCCCOc2ccc(-c3cc[nH]n3)c(OC)c2CCC)ccc2c1OC(C(=O)O)CC2` (stereo not given) displayed a melting point of 156 to 158 °C.

The molecule `CC1(c2cc(-c3cccc(C=C4SC(N5CCCC5)=NC4=O)c3)ccc2O)CCCCC1` showed a melting point of 278 to 280 °C.

The molecule `CNC(=O)/C(=N/OC)c1ccccc1COc1ccccc1C` yielded a melting point of 109 to 112 °C.

Take `CCn1cc(C(=O)O)c(=O)c2cc(F)c(N3CCN(C)C(c4ccco4)C3)cc21` (stereo not given): the melting point was in the range of 209 to 212 °C.

Regarding `CN1CCN(c2cccc3c2C[C@H](NC(=O)c2ccccc2OS(C)(=O)=O)CC3)CC1`, the melting point was in the range of 144 to 145 °C.

Turning to `CN1OCCN(c2ccc(Cl)cc2Cl)C1=O`, the melting point was in the range of 94 to 95 °C.

`CC(=O)Nc1cc(C)cc(CCC(=O)O)n1` had a melting point of 202 °C.

As to `OCCCSc1csc2ccccc12`, the melting point was 154 to 155 °C.

`Cc1cccn2cc(CN3CCN(c4ccc(Cl)cc4)CC3)nc12` showed a melting point of 102 to 104 °C.

As to `CC1(C)Nc2ccccc2-n2cnc(-c3noc(C4CC4)n3)c21`, the melting point fell in the range of 166 to 169 °C.

In the case of `N#CC1(C#N)C2C=CC(C2)C1(Cl)Cl` (stereo not given), the melting point amounted to 161 °C.

As to `O=[N+]([O-])c1cc(Cl)cc(C(O)c2cc(Cl)cc([N+](=O)[O-])c2O)c1O`, the melting point was 180 °C.
